# From US20250008983A1, “COMPOSITIONS CONTAINING PEROXYACIDS TO CONTROL PATHOGEN GROWTH IN ANIMAL FEED AND RELATED METHODS” (KEMIN INDUSTRIES, INC., priority 2023, published 2025)
# Like-named read-outs stand apart in the source and are kept apart here.
# What was measured:
# Type in all cases: cell-based
# [1] = test system: Salmonella enterica isolated from layer feed; assay: Preliminary in vitro feed assay, Salmonella count in contaminated feed over 21 days; conditions: 15 kg/ton
# Procedure: (§1) Preparation of the treatment. Perpropionic acid, peracetic acid, mixture of peroctanoic acid and perdecanoic acid (PC8/PC10) and Sal CURB products were used without any further dilution or mixing. The peroxy mix was prepared by mixing peracetic and perpropionic acid in 1:1 weight ratio. Briefly, 1.0 g of peroxy mix was prepared by weighing 0.5 g of peracetic acid into 0.5 g of perpropionic acid. The mixture was mixed well prior to usage. Similar procedure was followed in the preparation of 3% sulphuric acid (where […] of water) and peroxy mix with ester (where 0.9 g of peroxy mix (prepared with peracetic and propionic acid) was mixed with 0.1 g of propylene glycol propionate esters). […] Briefly, 1 mL of 75% phosphoric acid was added to 10 mL of Pro-Oxine solution and mixed well. The mixture is covered and let to stand for 10 mins prior to usage.
# (§2) Preparation of stock feed inoculum. The researchers prepared contaminated feed from known methods, where Salmonella enterica isolated from layer feed was revived from the glycerol stock by plating a loopful of culture onto the TSAYE (i.e., tryptone soya agar supplemented with 0.6% yeast extract (CM0131B; Oxoid) prepared as per recommended) and incubate for 18-24 hours at 37° C. Following which, the colonies were collected aseptically with saline solution (i.e., 0.9% sodium chloride (V800372; Sigma-Aldrich) prepared in deionized water), yielding approximately 5 mL of biomass suspension. The biomass suspension was diluted accordingly to meet the contamination level required for the stock inoculum. No dilution was required for high contamination level of ca. 10^7 cfu/g whereas biomass suspension was diluted 1000 times to achieve lower contamination level of ca. 10^4 cfu/g in the stock inoculum. The stock feed inoculum was prepared by adding the biomass suspension (5 mL) into 100 g of sterile feed (made up with 7:3 ground corn and soybean, autoclaved at 121° C. for one hour and dried for 24 hours at 65° C.) with a syringe and needle, and homogenously mixed after. The stock feed inoculum was stored at 25° C. for a week. Salmonella count of the stock inoculum was determined using conventional plating method with XLD agar (i.e., Xylose lysine deoxycholate (CM0469B; Oxoid)) and BPW (i.e., buffered peptone water (CM0509B; Oxoid)) prior to usage. Briefly, three grams of stock feed inoculum was weighed into a 50 mL conical tube, diluted with 27 mL of BPW, homogenously mixed and left to stand for 30 minutes. The feed suspension was then serial diluted to the appropriate dilutions. An aliquot of 0.1 mL of the feed suspension was plated onto the agar at each dilution and incubated at 37° C. for 18-24 hours prior to enumeration. Plating was carried out in triplicates. Blank stock feed was prepared by adding 5 mL of saline into 100 g of sterile feed.
# (§3) Preparation of the feed inoculum. The stock feed inoculum was diluted approximately 100 times with sterile feed where three grams of stock inoculum was added into 307 g of sterile feed and kept at 37° C. for 24 hours. The Salmonella count of the feed was determined prior to treatment. Briefly, 90 mL of BPW was added into 10 g of feed sample in a sterile bag (10^−1 dilution). The mixture was homogenously mixed with a stomacher at medium speed for three minutes and left to stand for 30 minutes. The feed supernatant was serial diluted to appropriate dilutions for plating. The plates were incubated at 37° C. for 18-24 hours prior to counting. If low Salmonella count was expected, the sample size was increased to 1 mL by plating 300, 300 and 400 uL onto three plates in triplicates for […] detection limit (10 cfu/g). Blank feed was prepared by adding three grams of blank stock feed into 307 g of sterile feed. In addition, an extra contaminated feed was prepared as a control.
# (§4) Treatment of contaminated feed. […]
# [2] = test system: Escherichia coli ATCC 25922; assay: Minimum inhibitory concentration (MIC), broth microdilution; conditions: Escherichia coli
# Procedure: Materials and Methods. The assay was conducted to determine the minimum inhibitory concentration (MIC) of peroxy-acids against Escherichia coli ATCC 25922. E. coli was purchased from American Type Culture Collection (ATCC). The strain was stored at −80° C. in glycerol. Prior to usage, E. coli was revived by streaking a loopful of culture onto TSAYE (i.e., tryptone soya agar yeast extract (CM0131 and LP0021; Oxoid) prepared as per recommended by Oxoid) with overnight incubation at 37° C. An overnight culture of E. coli was diluted in TSBYE (i.e, tryptone soya broth yeast extract (CM0129; Oxoid) prepared as per recommended by Oxoid) to obtain a cell suspension of ca. 10^5 CFU/mL. Subsequently, 100 μL of the diluted culture was added to 100 μL of the test solutions at the needed concentrations into a microtiter plate (92096; TPP Techno Plastic Products AG). Peroxy-acids were tested at an active concentration of 25-1600 μg/mL. Subsequently, the inoculated plate was incubated at 37° C. up to 48 hours with the bacterial cell density recorded at optical density (OD) 600 nm at 24 hours interval using a microplate reader (Varioskan LUX; Thermo Fisher).
# [3] = test system: Enterobacteriaceae
# Procedure: Materials and Method. Naturally contaminated layer feed was collected, ground, and mixed well prior to weighing. The ground feed was weighed and separated into 15 different bags, each containing 300 g. The product/prototype was accurately weighed at the needed dosage and adjusted to a total volume of 5 mL prior to adding into the 300 g of feed with a syringe and needle. Product/prototype was added in batches (i.e., 2, 2, and 1 mL separately) and mixed after each addition. Five mL of sterile water was added into the feed and served as the control. The treated feed samples were homogenized after treatment and kept at 25° C. until the day of enumeration.
# TEC of the 15 samples were studied over a period of 22 days with enumeration interval at time points 0, 1 and 22 days. The effect of peroxy acid was neutralized at each time point prior to enumeration. At each time point, 20 mL of 0.1 M sodium thiosulphate was added into 10 g of each treated feed sample in a sterile bag. The mixture was mixed well and left to stand for 10 minutes. After 10 minutes, 70 mL of BPW was added to achieve 10^−1 dilution. The feed suspension was homogenously mixed and left to stand for 30 minutes. Subsequently, the feed suspension was serial diluted to appropriate dilutions for enumeration. 100 uL of the diluted samples were plated onto Violet Red Bile Glucose (VRBG; CM0485 from Oxoid) agar, prepared as per recommended by the supplier. An aliquot of 0.1 mL of the feed suspension was plated onto the agar at each dilution and incubated at 37° C. for 18-24 hours prior to enumeration. Plating was carried out in triplicates. If low TEC is expected, the sample size is increased to 1 mL by plating 300, 300 and 400 uL onto three plates in triplicates for lower detection limit (10 CFU/g). The diluted feed samples (at 10^−1 dilution factor) were kept at 37° C. for 18-24 hours for enrichment prior to streaking. A loopful of diluted feed suspension was streaked onto the VRBG agar and incubated at 37° C. for 18-24 hours to determine qualitatively the presence of Enterobacteriaceae for samples with undetectable TEC.
# [4] = test system: Salmonella enterica isolated from layer feed; assay: In vitro feed assay, high Salmonella contamination level (~5 log cfu/g); conditions: 10.0 kg/ton
# Procedure: as §1, §2, §3, §4
compound,measurement,setting,value
"O=S(=O)(O)O [3% w/w sulphuric acid, sulphuric acid]",Salmonella killing effect,[1]; over the 21 days,No Salmonella killing effect
same,Salmonella count,[1]; post-treatment Day 1,5.80 log cfu/g
same,Salmonella count,[1]; post-treatment Day 6,5.02 log cfu/g
same,Salmonella count,[1]; post-treatment Day 21,4.82 log cfu/g
same,Salmonella count,[1]; pre-treatment Day 0,5.59 log cfu/g
"CC(=O)OO [Peracetic acid, peracetic acid]",MIC,"[2]; ATCC25922, preliminary results, read-out: MIC",300 µg/mL
same,MIC,"[2]; ATCC25922, no increment in OD over 48 hours, 37° C., read-out: Minimum inhibitory concentration (μg/mL) against E. coli",300 µg/mL
same,TEC,"[3]; 2.5 kg/ton, post treatment Day 1",<1.00 log CFU/g
same,TEC,"[3]; 2.5 kg/ton, post treatment Day 22",3.32 log CFU/g
same,TEC,"[3]; 2.5 kg/ton, pre-treatment Day 0",3.37 log CFU/g
same,TEC,"[3]; 5.0 kg/ton, post treatment Day 1",2.39 log CFU/g
same,TEC,"[3]; 5.0 kg/ton, post treatment Day 22",<1.00 log CFU/g
same,TEC,"[3]; 5.0 kg/ton, pre-treatment Day 0",<2.00 log CFU/g
same,TEC,"[3]; 10.0 kg/ton, post treatment Day 1",1.43 log CFU/g
same,TEC,"[3]; 10.0 kg/ton, post treatment Day 22",<1.00 log CFU/g
same,TEC,"[3]; 10.0 kg/ton, pre-treatment Day 0",2.52 log CFU/g
same,Salmonella count,[1]; pre-treatment Day 0,5.63 log cfu/g
same,Salmonella count,[4]; post-treatment Day 1,2.01 log cfu/g
same,Salmonella count,[4]; post-treatment Day 2,BD (Salmonella count is below detection limit (1 log cfu/g))
same,Salmonella count,[4]; post-treatment Day 3,BD (Salmonella count is below detection limit (1 log cfu/g))
same,Salmonella count,[4]; post-treatment Day 6,2.11 log cfu/g
same,Salmonella count,[4]; post-treatment Day 14,BD (Salmonella count is below detection limit (1 log cfu/g))
same,Salmonella count,[4]; post-treatment Day 21,1.12 log cfu/g
same,Salmonella count,[4]; pre-treatment Day 0,5.98 log cfu/g
